# Where “and” joins values, the source holds several entries; their conditions need not be identical. Identical values can stand only once. Like-named read-outs stand apart in the source and are kept apart here.
# Key:
# S. pneumoniae T14 [1] = type: cell-based, Streptococcus pneumoniae serotype 14; settings: for Polysacch. Titer: production medium + Galactose (30 g/L) + 2AzGlc (0.25 mM)
# Method: FIGS. 1A-1D. Screen for azido sugar incorporation into S. pneumoniae T14 capsule polysaccharide. […] Bacteria were grown until the ΔOD600≥0 for >30 minutes, then lysed with 0.1% NLS for 30 minutes. Growth was measured offline using a spectrophotometer blanked with PBS at 600 nm. (FIG. 1A) azido incorporation into polysaccharide was then quantified via fluorescent labeling (FL) with normalization to refractive index (RI). MaxOD and End Of Fermentation time (EOF) are provided in (FIG. 1B) and (FIG. 1C), respectively. Polysaccharide was extracted using EtOH and CaCl2 and analyzed via SEC-RI for (FIG. 1D) polysaccharide titer. n=1-4, error bars=+/−StDev.
# FIGS. 2A-2D Impact of 2AzGlcAc4 concentration on S. pneumoniae T14 growth and poly production in production medium supplemented with Galactose (30 g/L). […] (FIG. 2A) Growth was measured offline using a spectrophotometer blanked with PBS at 600 nm. At the end of fermentation, cultures were lysed with 0.1% NLS for 30 min. and polysaccharide was extracted via EtOH/CaCl2) precipitation. Polysaccharide titer (FIG. 2B) and size (FIG. 2C) were measured via SEC-RI and SEC-MALS, respectively. (FIG. 2D) azido incorporation was then quantified via fluorescent labeling (FL) and normalized to the refractive index (RI). n=3, error bars=+/−StDev.
# FIGS. 3A-3E Impact of 2AzGlc concentration on S. pneumoniae T14 growth and polysaccharide production in production medium supplemented with Galactose (30 g/L). […] (FIG. 3A) Growth was measured offline using a spectrophotometer blanked with PBS at 600 nm. Cultures were lysed with 0.1% NLS for 30 min. and polysaccharide was extracted via EtOH/CaCl2) precipitation. Polysaccharide (FIG. 3B/FIG. 3C) titer and (FIG. 3D) size were measured via SEC-RI and SEC-MALS, respectively. (FIG. 3E) azido incorporation was then quantified via fluorescent labeling (FL) and normalized to the refractive index (RI). n=3, error bars=+/−StDev.
# We tested the impact of 2AzGlc concentration on S. pneumoniae T14 growth, polysaccharide production, and azido incorporation by growing the bacteria in production media (supplemented with Glucose (dextrose, 30 g/L)) with various concentrations of 2AzGlc (0, 1, 5, 10, 20, 40, and 60 mM).
# S. pneumoniae T14 [2] = test: Growth of S. pneumoniae T14 in fermentation with azido sugar (OD600); type: cell-based, Streptococcus pneumoniae serotype 14; settings: for MaxOD600 nm: production media + 2AzGlc (10 mM)
# [3] = 2AzGlc titration 0-60 mM, production media + Glucose (dextrose, 30 g/L)
# [4] = 2AzGlc titration, production media + Glucose (dextrose, 30 g/L)
# [5] = 2AzGlc titration, production medium + Galactose (30 g/L)
# [6] = azido feed DOE: Gal 30 g/L, initial 2AzGlc 0 mM, 2AzGlc feed stock 4 mM, pH 7.33, 300 rpm
# [7] = azido feed DOE: Gal 30 g/L, initial 2AzGlc 0 mM, 2AzGlc feed stock 6.5 mM, pH 7.33, 300 rpm
# [8] = azido feed DOE: Gal 30 g/L, initial 2AzGlc 0.1 mM, 2AzGlc feed stock 4 mM, pH 7.33, 300 rpm
# [9] = azido feed DOE: Gal 30 g/L, initial 2AzGlc 0.1 mM, 2AzGlc feed stock 6.5 mM, pH 7.33, 300 rpm
# [10] = azido feed DOE: Gal 40 g/L, initial 2AzGlc 0 mM, 2AzGlc feed stock 4 mM, pH 7.33, 300 rpm
# [11] = azido feed DOE: Gal 40 g/L, initial 2AzGlc 0 mM, 2AzGlc feed stock 6.5 mM, pH 7.33, 300 rpm
# [12] = azido feed DOE: Gal 40 g/L, initial 2AzGlc 0.1 mM, 2AzGlc feed stock 4 mM, pH 7.33, 300 rpm
# [13] = azido feed DOE: Gal 40 g/L, initial 2AzGlc 0.1 mM, 2AzGlc feed stock 6.5 mM, pH 7.33, 300 rpm
# [14] = azido sugar 20 mM without DMSO, production medium + Galactose (30 g/L)
# [15] = initial galactose 40 g/L, initial 2AzGlc 0.1 mM, 4.0 mM 2AzGlc feed stock
# [16] = screen, azido sugar 1 mM, only in production medium + Galactose
structure (smiles),measurement,setting,value
"[N-]=[N+]=N[C@@H](C=O)[C@@H](O)[C@H](O)[C@H](O)CO [2AzGlc, 2-Azido-2-deoxy-D-glucose]",max size reduction,S. pneumoniae T14 [1]; [3],78%
same,max titer loss,S. pneumoniae T14 [1]; [3],56%
same,concentration at which negative effect on poly production started,S. pneumoniae T14 [1]; [4],1 mM
same,polysaccharide titers with increasing 2AzGlc concentrations,S. pneumoniae T14 [1]; [5],negatively impacted
same,Poly Titer,S. pneumoniae T14 [1]; [6],0.2358 mg/mL and 0.22 mg/mL
same,Poly Titer,S. pneumoniae T14 [1]; [7],0.1846 mg/mL and 0.189 mg/mL
same,Poly Titer,S. pneumoniae T14 [1]; [8],0.1856 mg/mL and 0.1876 mg/mL
same,Poly Titer,S. pneumoniae T14 [1]; [9],0.1266 mg/mL and 0.137 mg/mL
same,Poly Titer,S. pneumoniae T14 [1]; [10],0.2204 mg/mL and 0.1796 mg/mL
same,Poly Titer,S. pneumoniae T14 [1]; [11],0.1826 mg/mL and 0.1536 mg/mL
same,Poly Titer,S. pneumoniae T14 [1]; [12],0.1882 mg/mL and 0.1748 mg/mL
same,Poly Titer,S. pneumoniae T14 [1]; [13],0.1251 mg/mL and 0.1011 mg/mL
same,polysaccharide production,S. pneumoniae T14 [1]; [14],strongly inhibited
same,polysaccharide titer (average),S. pneumoniae T14 [1]; [15],0.1815 mg/mL
same,Poly Titer,"S. pneumoniae T14 [1]; production media + 2AzGlc (10 mM), pH 6.33, agitation 100 rpm",0.39 mg/mL
same,Poly Titer,"S. pneumoniae T14 [1]; production media + 2AzGlc (10 mM), pH 6.33, agitation 300 rpm",0.44 mg/mL and 0.42 mg/mL
same,Poly Titer,"S. pneumoniae T14 [1]; production media + 2AzGlc (10 mM), pH 6.66, agitation 200 rpm",0.52 mg/mL and 0.47 mg/mL
same,Poly Titer,"S. pneumoniae T14 [1]; production media + 2AzGlc (10 mM), pH 7, agitation 100 rpm",0.40 mg/mL and 0.41 mg/mL
same,Poly Titer,"S. pneumoniae T14 [1]; production media + 2AzGlc (10 mM), pH 7, agitation 300 rpm",0.43 mg/mL and 0.48 mg/mL
same,Poly Titer,"S. pneumoniae T14 [1]; production media + 2AzGlc (10 mM), pH 7.33, agitation 100 rpm",0.36 mg/mL and 0.37 mg/mL
same,Poly Titer,"S. pneumoniae T14 [1]; production media + 2AzGlc (10 mM), pH 7.33, agitation 200 rpm",0.41 mg/mL and 0.44 mg/mL
same,Poly Titer,"S. pneumoniae T14 [1]; production media + 2AzGlc (10 mM), pH 7.33, agitation 300 rpm",0.41 mg/mL
same,Titer,"S. pneumoniae T14 [1]; production media + Glucose (dextrose, 30 g/L), media pH 7, 2AzGlc 1 mM",0.63 mg/mL
same,Titer,"S. pneumoniae T14 [1]; production media + Glucose (dextrose, 30 g/L), media pH 7, 2AzGlc 5 mM",0.53 mg/mL
same,Titer,"S. pneumoniae T14 [1]; production media + Glucose (dextrose, 30 g/L), media pH 7, 2AzGlc 10 mM",0.43 mg/mL
same,Titer,"S. pneumoniae T14 [1]; production media + Glucose (dextrose, 30 g/L), media pH 7, 2AzGlc 20 mM",0.32 mg/mL
same,Titer,"S. pneumoniae T14 [1]; production media + Glucose (dextrose, 30 g/L), media pH 7.33, 2AzGlc 20 mM",0.3 mg/mL
same,Titer,"S. pneumoniae T14 [1]; production media + Glucose (dextrose, 30 g/L), media pH 7.33, 2AzGlc 40 mM",0.28 mg/mL
same,Titer,"S. pneumoniae T14 [1]; production media + Glucose (dextrose, 30 g/L), media pH 7.33, 2AzGlc 60 mM",0.28 mg/mL
same,Polysacch. Titer,"S. pneumoniae T14 [1]; pH 6.33, agitation 100 rpm",0.195 mg/mL and 0.193 mg/mL
same,Polysacch. Titer,"S. pneumoniae T14 [1]; pH 6.33, agitation 200 rpm",0.171 mg/mL
same,Polysacch. Titer,"S. pneumoniae T14 [1]; pH 6.33, agitation 300 rpm",0.087 mg/mL and 0.149 mg/mL
same,Polysacch. Titer,"S. pneumoniae T14 [1]; pH 6.66, agitation 100 rpm",0.247 mg/mL
same,Polysacch. Titer,"S. pneumoniae T14 [1]; pH 6.66, agitation 300 rpm",0.227 mg/mL
same,Polysacch. Titer,"S. pneumoniae T14 [1]; pH 7, agitation 200 rpm",0.269 mg/mL
same,Polysacch. Titer,"S. pneumoniae T14 [1]; pH 7.33, agitation 100 rpm",0.235 mg/mL and 0.216 mg/mL
same,Polysacch. Titer,"S. pneumoniae T14 [1]; pH 7.33, agitation 300 rpm",0.228 mg/mL and 0.211 mg/mL
same,polysaccharide titer,S. pneumoniae T14 [1]; [16],reduced
same,"rate of galactose consumption, of the batch model","S. pneumoniae T14 [2]; 2AzGlc addition, production medium + Galactose (30 g/L)",~70%
same,concentration at which negative effect on growth started,S. pneumoniae T14 [2]; [4],20 mM
same,growth with increasing 2AzGlc concentrations,S. pneumoniae T14 [2]; [5],negatively impacted
same,MaxOD,S. pneumoniae T14 [2]; [6],9.78 and 9.56
same,MaxOD,S. pneumoniae T14 [2]; [7],8.74 and 8.32
same,MaxOD,S. pneumoniae T14 [2]; [8],8.96 and 8.13
same,MaxOD,S. pneumoniae T14 [2]; [9],5.76 and 5.65
same,MaxOD,S. pneumoniae T14 [2]; [10],9.78 and 7.39
same,MaxOD,S. pneumoniae T14 [2]; [11],8.44 and 6.64
same,MaxOD,S. pneumoniae T14 [2]; [12],8.53 and 8.4
same,MaxOD,S. pneumoniae T14 [2]; [13],4.53 and 3.71
same,growth,S. pneumoniae T14 [2]; [14],strongly inhibited
same,OD600 nm at which growth stopped,"S. pneumoniae T14 [2]; fed-batch, initial galactose 5.0 g/L, 0.25 mM 2AzGlc, regardless of feed rate",3.0
same,maximum OD600 nm (average),S. pneumoniae T14 [2]; [15],8.5
same,MaxOD600 nm,"S. pneumoniae T14 [2]; pH 6.66, agitation 200 rpm",11.7
same,MaxOD600 nm,"S. pneumoniae T14 [2]; pH 7, agitation 300 rpm",11.3 and 12.9
same,MaxOD600 nm,"S. pneumoniae T14 [2]; pH 7.33, agitation 300 rpm",10.5 and 10.4
same,MaxOD,"S. pneumoniae T14 [2]; production medium + Galactose (30 g/L) + 2AzGlc (0.25 mM), pH 6.33, agitation 100 rpm",6.98 and 6.76
same,MaxOD,"S. pneumoniae T14 [2]; production medium + Galactose (30 g/L) + 2AzGlc (0.25 mM), pH 6.33, agitation 200 rpm",6.81
same,MaxOD,"S. pneumoniae T14 [2]; production medium + Galactose (30 g/L) + 2AzGlc (0.25 mM), pH 6.33, agitation 300 rpm",6.05 and 5.89
same,MaxOD,"S. pneumoniae T14 [2]; production medium + Galactose (30 g/L) + 2AzGlc (0.25 mM), pH 6.66, agitation 100 rpm",8.96
same,MaxOD,"S. pneumoniae T14 [2]; production medium + Galactose (30 g/L) + 2AzGlc (0.25 mM), pH 6.66, agitation 300 rpm",9.1
same,MaxOD,"S. pneumoniae T14 [2]; production medium + Galactose (30 g/L) + 2AzGlc (0.25 mM), pH 7, agitation 200 rpm",9.38
same,MaxOD,"S. pneumoniae T14 [2]; production medium + Galactose (30 g/L) + 2AzGlc (0.25 mM), pH 7.33, agitation 100 rpm",8.43 and 8.23
same,MaxOD,"S. pneumoniae T14 [2]; production medium + Galactose (30 g/L) + 2AzGlc (0.25 mM), pH 7.33, agitation 300 rpm",8.54 and 8.26
same,maximum OD,S. pneumoniae T14 [2]; [16],reduced

# — patent US20250163484A1, “Methods for Incorporating Azido Groups in Bacterial Capsular Polysaccharides” (PFIZER INC., priority 2022, published 2025)
